Read-outs that look alike come from different tables or passages of the source.
How the values were obtained:
CDK13 = CDK13 (Homo sapiens, UniProt Q14004); experiment: CDK13 kinase inhibitory activity assay (33P-ATP filter binding); type: biochemical
In short: (§1)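 Radiometric filter-binding read-out: after 20 min compound–enzyme/substrate pre-incubation across 9 concentrations, reaction started with ^33P-γ-ATP and run 120 min at room temperature. Filter-bound ^33P-substrate measured after 0.75 % phosphoric acid washes; remaining activity versus DMSO gives IC50.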

HCT15 = experiment: Colorectal cancer cell proliferation inhibitory activity, HCT15; type: cell-based; settings: Homo sapiens, HCT-15; 72 hours, Cell Counting Kit-8, relative IC50
Description: (§2) Experiments were performed using seven types of colorectal cancer cell lines to measure the cell proliferation inhibitory ability of each Example compound. DLD-1, LoVo, SW620, SW480, HCT116, HCT15, and HT29 cells were dispensed into a 96-well plate at 100 µL of cell suspension per well using RPMI1640 medium containing 10 % FBS and 1 % PS, followed by incubation in a cell incubator at 37 °C and 5 % CO2. The next day, each Example compound dissolved and diluted in DMSO across 10 concentration ranges and a DMSO control group were treated on the cells for 72 hours. After completion of the compound treatment, 10 µL of Cell Counting Kit-8 (Dojindo) reagent was added to each well of the 96-well plate, followed by incubation for 2 hours. […] were measured after inserting the 96-well plate into an Envision plate reader […]. Relative IC50 values were calculated by fitting a dose-response curve using Graphpad PRISM software.
(§3) The colorectal cancer cell proliferation inhibitory activities of the Example compounds measured by the method described above were evaluated according to the following criteria, and the results are presented in Table 19.

SW480 = experiment: Colorectal cancer cell proliferation inhibitory activity, SW480; type: cell-based; settings: Homo sapiens, 72 hours, Cell Counting Kit-8, relative IC50
Description: as §2, §3

AGS cells = experiment: Gastric cancer cell proliferation inhibitory activity (Cell Counting Kit-8), AGS; type: cell-based; settings: Homo sapiens, 72 hours, Cell Counting Kit-8, relative IC50
Description: as §2, with “six” for “seven”, “gastric” for “colorectal”, “NCI-N87, SNU601, KATO-III, MKN1,” for “DLD-1, LoVo, SW620, SW480, HCT116, HCT15,”, “AGS” for “HT29”, “RPMI1640 medium containing 10 % FBS and 1 % PS, followed by incubation in a cell incubator at 37 °C and 5 % CO2. HS746T cells were dispensed into a 96-well plate at 100 µL of cell suspension per well using DMEM” for “RPMI1640”
(§4) The gastric cancer cell proliferation inhibitory activities of the Example compounds measured by the method described above were evaluated according to the following criteria, and the results are presented in Table 20.

Cyclin K [1] = experiment: Analysis of Cyclin K degradation ability in MKN45 gastric cancer cells (western blot); type: cell-based; settings: 8 hours or 24 hours, compared to the negative control group (DMSO), FIGs. 4 and 5
Description: In order to confirm the Cyclin K degradation ability of the Example compounds, HCC70 breast cancer cells and MKN45 gastric cancer cells were cultured in RPMI-1640 medium supplemented with 10 % FBS, and then the cells were collected to prepare cell suspensions. The HCC70 breast cancer cell suspension was dispensed at a cell number of 2.0 X 10^6 per 6-well and cultured in a 5 % CO2 cell incubator at 37 °C for 24 hours, and the MKN45 gastric cancer cell suspension was dispensed at a cell number of 5.0 X 10^6 per 6-well and cultured in a 5 % CO2 cell incubator at 37 °C for 24 hours. The next day, each Example compound dissolved and diluted in DMSO across 4 to 5 concentration ranges and a negative control group (DMSO-treated group) were added to the 6-wells, and the HCC70 breast cancer cells were treated for 8 hours while the MKN45 gastric cancer cells were treated with the compounds for 8 hours or 24 hours. After completion of the compound treatment, the medium was removed, each cell was washed with PBS, and then 100 µL of RIPA buffer for cell lysis was added to each 6-well to collect cell lysates. The protein concentration of the cell lysates was quantified by the […], and loading buffer was added to adjust the protein concentration to 30 µg, followed by reaction at 85 °C for 10 minutes, centrifugation, and standing at room temperature. […]

CDK12 = CDK12 (Homo sapiens, UniProt Q9NYV4); experiment: CDK12 kinase inhibitory activity assay (33P-ATP filter binding); type: biochemical
Sequence of CDK12 (Q9NYV4 whole entry, species assumed): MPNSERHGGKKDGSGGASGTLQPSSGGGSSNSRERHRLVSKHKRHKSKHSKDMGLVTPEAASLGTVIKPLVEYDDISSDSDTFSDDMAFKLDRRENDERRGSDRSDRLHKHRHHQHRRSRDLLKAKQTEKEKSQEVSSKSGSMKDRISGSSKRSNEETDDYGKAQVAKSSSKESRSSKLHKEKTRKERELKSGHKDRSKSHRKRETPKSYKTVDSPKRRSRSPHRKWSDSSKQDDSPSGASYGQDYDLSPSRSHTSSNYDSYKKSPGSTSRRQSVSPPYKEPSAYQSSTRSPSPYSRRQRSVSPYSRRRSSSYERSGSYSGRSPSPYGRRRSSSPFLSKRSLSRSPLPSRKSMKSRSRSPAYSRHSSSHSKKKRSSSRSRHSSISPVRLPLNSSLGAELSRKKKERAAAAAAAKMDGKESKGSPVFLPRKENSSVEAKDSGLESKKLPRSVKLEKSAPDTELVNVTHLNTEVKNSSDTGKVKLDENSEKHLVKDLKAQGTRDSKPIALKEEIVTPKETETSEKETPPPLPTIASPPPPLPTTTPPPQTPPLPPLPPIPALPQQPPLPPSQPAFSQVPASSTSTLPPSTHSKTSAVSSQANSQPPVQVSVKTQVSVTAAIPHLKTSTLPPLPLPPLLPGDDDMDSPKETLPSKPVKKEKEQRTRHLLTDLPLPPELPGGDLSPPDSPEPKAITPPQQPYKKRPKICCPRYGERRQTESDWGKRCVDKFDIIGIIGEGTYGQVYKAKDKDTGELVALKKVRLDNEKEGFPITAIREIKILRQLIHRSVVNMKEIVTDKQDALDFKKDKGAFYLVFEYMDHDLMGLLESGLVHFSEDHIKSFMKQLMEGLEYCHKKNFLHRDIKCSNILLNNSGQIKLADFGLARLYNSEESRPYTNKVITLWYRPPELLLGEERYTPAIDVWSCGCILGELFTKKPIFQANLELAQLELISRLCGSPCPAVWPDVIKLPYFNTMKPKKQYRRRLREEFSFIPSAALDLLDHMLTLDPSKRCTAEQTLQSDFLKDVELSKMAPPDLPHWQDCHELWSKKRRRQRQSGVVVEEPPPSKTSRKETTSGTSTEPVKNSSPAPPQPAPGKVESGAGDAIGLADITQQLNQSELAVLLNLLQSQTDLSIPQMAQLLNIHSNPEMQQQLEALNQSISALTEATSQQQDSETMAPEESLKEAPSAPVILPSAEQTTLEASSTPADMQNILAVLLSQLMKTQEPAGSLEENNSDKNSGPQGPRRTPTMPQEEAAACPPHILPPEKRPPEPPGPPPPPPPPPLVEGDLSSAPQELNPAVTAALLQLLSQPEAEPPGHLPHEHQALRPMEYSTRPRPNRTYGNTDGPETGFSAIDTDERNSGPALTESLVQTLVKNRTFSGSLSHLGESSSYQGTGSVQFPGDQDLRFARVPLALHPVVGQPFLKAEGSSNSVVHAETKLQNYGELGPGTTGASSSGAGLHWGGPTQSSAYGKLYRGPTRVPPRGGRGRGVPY
Sequence of CDK12 (O75909 whole entry partner, species assumed): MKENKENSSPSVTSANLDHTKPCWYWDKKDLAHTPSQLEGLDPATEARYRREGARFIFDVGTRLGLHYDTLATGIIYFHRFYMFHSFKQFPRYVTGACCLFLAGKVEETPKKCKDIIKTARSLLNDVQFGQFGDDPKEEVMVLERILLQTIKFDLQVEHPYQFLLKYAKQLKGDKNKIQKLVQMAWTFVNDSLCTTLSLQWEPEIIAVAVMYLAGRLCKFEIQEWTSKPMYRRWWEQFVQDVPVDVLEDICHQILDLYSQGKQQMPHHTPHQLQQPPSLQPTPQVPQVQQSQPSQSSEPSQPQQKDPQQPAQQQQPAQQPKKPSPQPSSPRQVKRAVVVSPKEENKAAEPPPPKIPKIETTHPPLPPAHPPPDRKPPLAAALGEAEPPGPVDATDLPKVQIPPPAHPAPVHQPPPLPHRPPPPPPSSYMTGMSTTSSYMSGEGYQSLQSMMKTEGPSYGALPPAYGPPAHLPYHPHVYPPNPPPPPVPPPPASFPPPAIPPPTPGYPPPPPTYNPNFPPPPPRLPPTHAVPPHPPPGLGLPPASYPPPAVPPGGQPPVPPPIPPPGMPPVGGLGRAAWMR
In short: as §1

MKN1 = experiment: Gastric cancer cell proliferation inhibitory activity (Cell Counting Kit-8), MKN1; type: cell-based; settings: Homo sapiens, MKN-1; 72 hours, Cell Counting Kit-8, relative IC50
Description: as §2, with “six” for “seven”, “gastric” for “colorectal”, “NCI-N87, SNU601, KATO-III, MKN1,” for “DLD-1, LoVo, SW620, SW480, HCT116, HCT15,”, “AGS” for “HT29”, “RPMI1640 medium containing 10 % FBS and 1 % PS, followed by incubation in a cell incubator at 37 °C and 5 % CO2. HS746T cells were dispensed into a 96-well plate at 100 µL of cell suspension per well using DMEM” for “RPMI1640”
as §4

Cyclin K [2] = experiment: Analysis of Cyclin K degradation ability in HCC70 breast cancer cells (western blot); type: cell-based; settings: 8 hours, compared to the negative control group (DMSO), FIGs. 1 to 3
Description: In order to confirm the Cyclin K degradation ability of the Example compounds, HCC70 breast cancer cells and MKN45 gastric cancer cells were cultured in RPMI-1640 medium supplemented with 10 % FBS, and then the cells were collected to prepare cell suspensions. The HCC70 breast cancer cell suspension was dispensed at a cell number of 2.0 X 10^6 per 6-well and cultured in a 5 % CO2 cell incubator at 37 °C for 24 hours, and the MKN45 gastric cancer cell suspension was dispensed at a cell number of 5.0 X 10^6 per 6-well and cultured in a 5 % CO2 cell incubator at 37 °C for 24 hours. The next day, each Example compound dissolved and diluted in DMSO across 4 to 5 concentration ranges and a negative control group (DMSO-treated group) were added to the 6-wells, and the HCC70 breast cancer cells were treated for 8 hours while the MKN45 gastric cancer cells were treated with the compounds for 8 hours or 24 hours. After completion of the compound treatment, the medium was removed, each cell was washed with PBS, and then 100 µL of RIPA buffer for cell lysis was added to each 6-well to collect cell lysates. The protein concentration of the cell lysates was quantified by the […], and loading buffer was added to adjust the protein concentration to 30 µg, followed by reaction at 85 °C for 10 minutes, centrifugation, and standing at room temperature. After electrophoresis on a 4-12 % Bis-Tris gel, proteins were transferred to a nitrocellulose membrane. Primary antibodies, Cyclin K (1:1000, Bethyl Lab) and Vinculin (1:1000, Sigma), were attached to the membrane, respectively, and then labeled using a secondary antibody (1:10000, LI-COR).

[3] = kinase reaction 120 minutes, 33P-gamma-ATP, read-out: CDK12 IC50
[4] = kinase reaction 120 minutes, 33P-gamma-ATP, read-out: CDK13 IC50

Sequence of CDK13 (Q14004 whole entry, species assumed): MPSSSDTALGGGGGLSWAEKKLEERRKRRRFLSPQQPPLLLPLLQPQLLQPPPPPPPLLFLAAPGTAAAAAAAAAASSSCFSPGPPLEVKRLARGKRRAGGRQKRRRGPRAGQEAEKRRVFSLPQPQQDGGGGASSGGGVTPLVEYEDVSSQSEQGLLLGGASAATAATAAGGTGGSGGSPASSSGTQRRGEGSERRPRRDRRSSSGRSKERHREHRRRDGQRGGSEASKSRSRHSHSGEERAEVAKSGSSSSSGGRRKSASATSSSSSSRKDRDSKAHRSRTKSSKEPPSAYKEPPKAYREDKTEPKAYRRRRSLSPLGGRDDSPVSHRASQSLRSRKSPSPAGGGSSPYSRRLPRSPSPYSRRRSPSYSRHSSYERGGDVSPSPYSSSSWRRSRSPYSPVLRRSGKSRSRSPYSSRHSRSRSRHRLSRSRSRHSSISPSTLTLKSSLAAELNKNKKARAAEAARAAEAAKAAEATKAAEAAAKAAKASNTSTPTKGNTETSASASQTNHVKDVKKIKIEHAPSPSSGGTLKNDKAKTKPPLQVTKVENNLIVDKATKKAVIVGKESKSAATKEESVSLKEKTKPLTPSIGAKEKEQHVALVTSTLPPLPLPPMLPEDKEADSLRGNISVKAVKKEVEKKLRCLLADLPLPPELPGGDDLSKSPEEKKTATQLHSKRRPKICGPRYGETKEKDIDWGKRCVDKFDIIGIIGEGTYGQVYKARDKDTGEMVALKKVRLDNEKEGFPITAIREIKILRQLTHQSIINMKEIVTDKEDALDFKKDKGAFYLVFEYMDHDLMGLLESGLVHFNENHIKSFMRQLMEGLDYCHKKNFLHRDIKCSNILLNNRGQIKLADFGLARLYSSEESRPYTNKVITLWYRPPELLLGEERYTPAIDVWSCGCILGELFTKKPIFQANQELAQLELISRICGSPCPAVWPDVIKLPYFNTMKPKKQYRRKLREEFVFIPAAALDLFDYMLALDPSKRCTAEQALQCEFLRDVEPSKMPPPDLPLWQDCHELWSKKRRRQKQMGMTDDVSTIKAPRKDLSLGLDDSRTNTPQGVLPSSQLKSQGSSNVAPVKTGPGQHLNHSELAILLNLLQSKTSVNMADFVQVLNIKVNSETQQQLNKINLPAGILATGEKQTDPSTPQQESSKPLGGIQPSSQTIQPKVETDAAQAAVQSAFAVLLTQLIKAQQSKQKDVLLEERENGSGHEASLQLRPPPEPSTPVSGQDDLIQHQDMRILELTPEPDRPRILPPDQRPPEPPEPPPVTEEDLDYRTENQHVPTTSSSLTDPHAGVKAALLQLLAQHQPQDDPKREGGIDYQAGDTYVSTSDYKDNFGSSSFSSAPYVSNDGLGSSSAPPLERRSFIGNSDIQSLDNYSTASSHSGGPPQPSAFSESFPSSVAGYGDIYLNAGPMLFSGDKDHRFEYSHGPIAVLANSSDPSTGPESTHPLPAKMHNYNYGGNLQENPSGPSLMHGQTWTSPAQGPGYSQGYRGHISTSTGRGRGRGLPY
Sequence of CDK13 (O75909 whole entry partner, species assumed): as the sequence (O75909 whole entry partner, species assumed) above

IC50 (CDK13) [µM] | IC50 (CDK12; [3]) [µM] | SMILES | IC50 (HCT15) [µM] | IC50 (SW480) [µM] | IC50 (AGS cells) [µM] | Cyclin K degradation ability (Cyclin K [1]) | IC50 (MKN1) [µM] | Cyclin K degradation ability (Cyclin K [2]) | IC50 (CDK13; [4]) [µM] | IC50 (CDK12) [µM]
< 0.1 | < 0.1 | CN1CCN(c2cc(NCc3nc4ccc(F)c(F)c4[nH]3)c3ncc(C(F)(F)F)n3n2)CC1 [Example 8, N-((6,7-difluoro-1H-benzo[d]imidazol-2-yl)methyl)-6-(4-methylpiperazin-1-yl)-3-(trifluoromethyl)imidazo[1,2-b]pyridazin-8-amine] | ≤ 0.2 | ≤ 0.2 | ≤ 0.2 | strongly degrade Cyclin K | ≤ 0.2 | strongly degrade Cyclin K |  | 
 | < 0.1 | CN1CCN(c2cc(NCc3nc4cc(Cl)c(Cl)cc4[nH]3)c3ncc(C(F)(F)F)n3n2)CC1 [Example 29, N-((5,6-dichloro-1H-benzo[d]imidazol-2-yl)methyl)-6-(4-methylpiperazin-1-yl)-3-(trifluoromethyl)imidazo[1,2-b]pyridazin-8-amine] |  |  |  |  |  |  | < 0.1 | 
 |  | N#CC1CN(c2cc(NCc3nc4cc(Cl)c(Cl)cc4[nH]3)c3ncc(C(F)(F)F)n3n2)C1 [Example 30, 1-(8-(((5,6-dichloro-1H-benzol[d]imidazol-2-yl)methyl)amino)-3-(trifluoromethyl)imidazo[1,2-b]pyridazin-6-yl)azetidine-3-carbonitrile] |  |  |  |  |  | strongly degrade Cyclin K | < 0.1 | 0.1 to 0.5
 |  | Nc1ncc(-c2cc(NCc3nc4cc(Cl)c(Cl)cc4[nH]3)c3ncc(C(F)(F)F)n3n2)cn1 [Example 40] | ≤ 0.2 | ≤ 0.2 | ≤ 0.2 | strongly degrade Cyclin K | ≤ 0.2 | strongly degrade Cyclin K | < 0.1 | < 0.1

Reference: patent EP4813991A1 (iLeadBMS Co., Ltd., priority 2023, dated 2025)
